# Read-outs that look alike come from different tables or passages of the source.
# Assays:
# Assay type in all cases: cell-based
# [1] = system: Ras-CVLS processing in COS monkey kidney cells; experiment: COS cell assay: inhibition of Ras-CVLS processing (Western blot)
# [2] = system: T24-BAG4 human bladder carcinoma cells expressing an activated H-ras gene; experiment: Cell Mat Assay, T24 tumor cells; conditions: Homo sapiens, read-out: Tumor (T-24) IC50
# [3] = system: DLD-1-BAG human colon carcinoma cells expressing as activated K-ras gene; experiment: Cell Mat Assay, DLD-1 tumor cells
SMILES,"IC50 ([1]; Primates, COS) [nM]",IC50 [2] [nM],"IC50 ([3]; Homo sapiens, DLD-1, Mat assay) [nM]",IC50 ([3]; Mat assay) [nM],IC50 [1] [nM]
O=C(Cc1cc[n+]([O-])cc1)N1CCN([C@H]2c3ccc(Cl)cc3CCc3cc(Br)cnc32)CC1 [Example 16B],125,< 1600,6250,–,–
O=C(Cc1cc[n+]([O-])cc1)N1CCN([C@@H]2c3ccc(Cl)cc3CCc3cc(Br)cnc32)CC1 [Example 16A],500,–,–,–,–
"NC(=O)N1CCC(CC(=O)N2CCC(C3c4ncc(Br)cc4CCc4cc(Cl)cc(Cl)c43)CC2)CC1 (single isomer, unassigned) [Example 18]",25,–,–,–,–
O=C(Cc1cc[n+]([O-])cc1)N1CCC(=C2c3ncc(Br)cc3CCc3cc(Cl)cc(Br)c32)CC1 (racemic) [Example 7],< 250,< 1600,–,–,–
O=C(Cc1cc[n+]([O-])cc1)N1CCN([C@H]2c3ncc(Br)cc3CCc3cc(Cl)cc(Br)c32)CC1 [Example 11A],< 25,< 1600,–,< 1600,–
"O=C(Cc1cc[n+]([O-])cc1)N1CCC(C2c3ccc(Cl)c(Br)c3CCc3cc(Br)cnc32)CC1 (single isomer, unassigned) [Example 14A]",–,< 1600,6250,–,480
O=C(Cc1cc[n+]([O-])cc1)N1CCC(=C2c3ccc(Cl)c(Br)c3CCc3cc(Br)cnc32)CC1 [Example 2],–,< 1600,6250,–,–
O=C(Cc1cc[n+]([O-])cc1)N1CCC([C@H]2c3ncc(Br)cc3CCc3cc(Cl)cc(Br)c32)CC1 [Example 9],10,< 1600,< 1600,–,–
"NC(=O)N1CCC(CC(=O)N2CCC(C3c4ccc(Cl)c(Br)c4CCc4cc(Br)cnc43)CC2)CC1 (single isomer, unassigned) [Example 13]",–,< 1600,–,–,420
O=C(Cc1cc[n+]([O-])cc1)N1CCN([C@H]2c3ccc(Cl)c(Br)c3CCc3cc(Br)cnc32)CC1 [Example 5],–,< 1600,3100,–,–
